Experimental data published in ChEMBL document CHEMBL1148886, “Synthesis and antibacterial activity of 3-keto-6-O-carbamoyl-11,12-cyclic thiocarbamate erythromycin A derivatives” (2007).
In brackets after ≈: the same amount, converted by molar mass.

Legend:
Type in all cases: functional
Staphylococcus aureus = experiment: Antibacterial activity against erythromycin-susceptible Staphylococcus aureus OC4172 by broth microdilution method
Streptococcus pneumoniae [1] = experiment: Antibacterial activity against erythromycin-susceptible Streptococcus pneumoniae OC9132 by broth microdilution method
Haemophilus influenzae = experiment: Antibacterial activity against Haemophilus influenzae OC4882 by broth microdilution method
Streptococcus pneumoniae [2] = experiment: Antibacterial activity against erythromycin-resistant Streptococcus pneumoniae OC4438 containing mef(A) by broth microdilution method
Streptococcus pneumoniae [3] = experiment: Antibacterial activity against erythromycin-resistant Streptococcus pneumoniae OC4051 containing erm(B) by broth microdilution method

Row | Structure (SMILES) | MIC (Staphylococcus aureus) [µg/mL] | MIC (Streptococcus pneumoniae [1]) [µg/mL] | MIC (Haemophilus influenzae) [µg/mL] | MIC (Streptococcus pneumoniae [2]) [µg/mL] | MIC (Streptococcus pneumoniae [3]) [µg/mL]
1 | CC[C@H]1OC(=O)[C@H](C)C(=O)[C@H](C)[C@@H](O[C@@H]2O[C@H](C)C[C@H](N(C)C)[C@H]2O)[C@](C)(OC(N)=O)C[C@@H](C)C(=O)[C@H](C)[C@@H]2NC(=S)O[C@]12C | 4 (≈ 6.08 µM) | 0.25 (≈ 0.38 µM) | 8 (≈ 12.2 µM) |  | 
2 | CC[C@H]1OC(=O)[C@H](C)[C@@H](O[C@H]2C[C@@](C)(OC)[C@@H](O)[C@H](C)O2)[C@H](C)[C@@H](O[C@@H]2O[C@H](C)C[C@H](N(C)C)[C@H]2O)[C@](C)(O)C[C@@H](C)C(=O)[C@H](C)[C@@H](O)[C@]1(C)O [ERYTHROMYCIN] | 0.5 (≈ 0.681 µM) | 0.06 (≈ 0.0818 µM) | 8 (≈ 10.9 µM) | 4 (≈ 5.45 µM) | > 16
3 | CC[C@H]1OC(=O)[C@H](C)C(=O)[C@H](C)[C@@H](O[C@@H]2O[C@H](C)C[C@H](N(C)C)[C@H]2O)[C@](C)(OC)C[C@@H](C)C(=O)[C@H](C)[C@H]2N(CCCCn3cnc(-c4cccnc4)c3)C(=O)O[C@]12C [TELITHROMYCIN] | 0.25 (≈ 0.308 µM) | 0.03 (≈ 0.0369 µM) | 2 (≈ 2.46 µM) | 0.25 (≈ 0.308 µM) | 0.06 (≈ 0.0739 µM)
